Experimental data reported in patent publication US20210198269A1, “INHIBITORS OF GLUCOSE TRANSPORTERS (GLUTs)” (LEAD DISCOVERY CENTER GMBH, priority 2018, published 2021).
pIC50: −log10 of the molar value.

Tests used:
Format in all cases: cell-based
GLUT1 = target: T1, GLUT1 (Homo sapiens, UniProt P11166); assay: GLUT1 transporter activity assay (2-DG uptake) in DLD1 cells; settings: DLD1 cell line; read-out: GLUT1 inhibitory activity (IC50)
T1 construct: host or cells: DLD-1 (DLD1) cells
T1 sequence (P11166 1-492): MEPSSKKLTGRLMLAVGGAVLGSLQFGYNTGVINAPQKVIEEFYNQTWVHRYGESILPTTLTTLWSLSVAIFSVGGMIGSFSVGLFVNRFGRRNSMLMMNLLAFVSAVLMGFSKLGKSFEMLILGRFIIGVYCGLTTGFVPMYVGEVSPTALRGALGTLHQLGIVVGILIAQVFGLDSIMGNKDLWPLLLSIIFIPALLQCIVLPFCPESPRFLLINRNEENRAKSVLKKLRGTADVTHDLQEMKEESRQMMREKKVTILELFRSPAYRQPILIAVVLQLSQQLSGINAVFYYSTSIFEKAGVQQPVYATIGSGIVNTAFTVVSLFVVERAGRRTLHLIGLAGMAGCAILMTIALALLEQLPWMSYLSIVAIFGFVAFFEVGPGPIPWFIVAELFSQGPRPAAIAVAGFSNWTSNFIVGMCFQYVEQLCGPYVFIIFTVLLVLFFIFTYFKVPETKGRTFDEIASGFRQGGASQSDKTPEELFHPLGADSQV
Source text: (§1) GLUT 1, 2, 3 and 4 Transporter Activity Assays
(§2) Assays were based on the specificity assays reported by Kapoor et al., Proceedings of the National Academy of Sciences 2016, 113 (17) 4711-4716. For GLUT1, GLUT2, GLUT3 and GLUT4 specificity testing DLD1, CHO-hGLUT2, DLD-1-GLUT1−/− and CHO-hGLUT4 cell lines were used.
(§3) Assay protocols for 2-deoxy-Glucose (2-DG) Uptake Assay with DLD1 or DLD1-Glut1(−/−) cells or 7,000 CHOK1-SLC2A4 cells lines:
(§4) 14,000 DLD1 or DLD1-Glut1(−/−) cells or 7,000 CHOK1-SLC2A4 cells were seeded in black, clear bottom 384-well plates in glucose- and phenolred-free RPMI1640 medium supplemented with 1% FCS and 2 mM L-glutamine and allowed to attach overnight. Next day, cells were washed and incubated with compounds or DMSO and 1 mM 2-DG in glucose- and phenolred-free RPMI1640 medium for 30 min. Cells were then washed and lysed in 0.06 M HCl and 1% CHAPS for 15 min at 65° C. The amount of 2-DG in the lysate was determined by means of enzyme-coupled assay. For this 16 U/mL glucose-6-phosphate dehydrogenase, 0.2 U/mL diaphorase, 0.1 mM NADP^+ and 10 μM resazurin were added to the lysates. Resorufin fluorescence was determined as a measure of 2-DG uptake at ex/em 535/590 nm with a Victor Multilabel plate reader (Perkin Elmer). Blank values were subtracted from all readings and values were normalized to the DMSO control.

GLUT3 = target: T2, GLUT3 (Homo sapiens, UniProt P11169); assay: GLUT3 transporter activity assay (2-DG uptake) in DLD-1-GLUT1-/- cells; settings: DLD-1-GLUT1-/- cell line; read-out: GLUT3 inhibitory activity (IC50)
T2 construct: host or cells: DLD-1-GLUT1(-/-) cells
T2 sequence (P11169 1-496): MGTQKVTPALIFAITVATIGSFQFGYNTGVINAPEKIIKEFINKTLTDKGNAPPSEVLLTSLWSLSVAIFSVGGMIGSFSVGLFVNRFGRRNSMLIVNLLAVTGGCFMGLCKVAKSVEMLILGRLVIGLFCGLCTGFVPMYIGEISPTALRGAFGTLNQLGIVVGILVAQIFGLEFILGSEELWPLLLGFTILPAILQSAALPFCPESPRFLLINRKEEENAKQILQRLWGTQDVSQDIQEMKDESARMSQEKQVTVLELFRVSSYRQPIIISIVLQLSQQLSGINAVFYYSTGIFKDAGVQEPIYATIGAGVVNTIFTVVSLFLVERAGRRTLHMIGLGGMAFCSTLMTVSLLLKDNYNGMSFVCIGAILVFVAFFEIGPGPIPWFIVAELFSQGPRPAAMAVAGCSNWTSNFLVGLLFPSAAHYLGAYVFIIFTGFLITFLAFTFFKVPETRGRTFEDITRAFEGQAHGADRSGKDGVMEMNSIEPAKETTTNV
Source text: as §1, §2, §3, §4

GLUT4 = target: T3, GLUT4 (Homo sapiens, UniProt P14672); assay: GLUT4 transporter activity assay (2-DG uptake) in CHO-hGLUT4 cells; settings: CHO-hGLUT4 cell line; read-out: GLUT4 inhibitory activity (IC50)
T3 sequence (P14672 1-509): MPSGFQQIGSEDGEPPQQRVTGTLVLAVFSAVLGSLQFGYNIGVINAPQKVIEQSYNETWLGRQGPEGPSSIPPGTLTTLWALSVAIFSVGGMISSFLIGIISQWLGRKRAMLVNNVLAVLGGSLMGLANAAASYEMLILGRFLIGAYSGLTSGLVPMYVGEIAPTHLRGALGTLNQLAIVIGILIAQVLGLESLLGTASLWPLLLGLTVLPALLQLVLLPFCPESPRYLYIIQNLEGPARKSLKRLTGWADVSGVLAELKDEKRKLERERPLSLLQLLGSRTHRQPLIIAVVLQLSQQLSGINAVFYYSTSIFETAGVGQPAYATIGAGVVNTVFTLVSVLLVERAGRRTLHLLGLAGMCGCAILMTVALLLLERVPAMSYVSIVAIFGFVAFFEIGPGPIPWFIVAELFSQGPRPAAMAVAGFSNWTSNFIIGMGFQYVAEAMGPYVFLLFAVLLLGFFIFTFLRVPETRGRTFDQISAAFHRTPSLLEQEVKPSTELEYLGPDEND
Protocol: CHOK1-SLC2A4 cells were generated by transfection of CHOK1 cells with pCMV6-Entry-GLUT4 (Origene #SC125240) using Lipofectamin2000 according to the supplier's instructions. Briefly, 1.5E5 cells/well CHOK1 cells were seeded in 6-well cell culture plates. After overnight incubation, DNA-lipid complexes (2 μg plasmid DNA, DNA:lipid ratio 1:10) were prepared in OptiMEM and then added to the cells. After 5 days incubation, 800 μg G418 was added to the culture medium to generate a stable polyclone. For monoclone selection, single cells were re-plated in 96-well plates, expanded and selected by transgene overexpression and functional performance.
as §1, §2, §3, §4

pIC50 (GLUT1)	pIC50 (GLUT3)	pIC50 (GLUT4)	SMILES
< 4.60	5.00 to 5.40	4.60 to 5.00	CC12CC(NC(=O)N1c1cccc(C(=O)NC3CCc4ccccc4C3)c1)c1cccc(OCc3ccccc3)c1O2 (stereo not drawn) [Compound A26, 3-(10-(benzyloxy)-2-methyl-4-oxo-5,6-dihydro-2H-2,6-methanobenzo[g][1,3,5]oxadiazocin-3(4H)-yl)-N-(1,2,3,4-tetrahydronaphthalen-2-yl)benzamide]
4.60 to 5.00	5.00 to 5.40	4.60 to 5.00	CC12CC(NC(=O)N1c1cccc(C(=O)NC3Cc4ccccc4C3)c1)c1cccc(OCc3ccccc3)c1O2 (stereo not drawn) [Compound A24, 3-(10-(benzyloxy)-2-methyl-4-oxo-5,6-dihydro-2H-2,6-methanobenzo[g][1,3,5]oxadiazocin-3(4H)-yl)-N-(2,3-dihydro-1H-inden-2-yl)benzamide]
4.60 to 5.00	5.00 to 5.40	4.60 to 5.00	CC12CC(NC(=O)N1c1cccc(C(=O)NCc3ccccc3)c1)c1cccc(OCc3ccccc3)c1O2 (stereo not drawn) [Compound A39, 3-(10-(benzyloxy)-2-methyl-4-oxo-5,6-dihydro-2H-2,6-methanobenzo[g][1,3,5]oxadiazocin-3(4H)-yl)-N-(benzyl)benzamide]
4.60 to 5.00	5.00 to 5.40	4.60 to 5.00	CCNC(=O)c1cccc(N2C(=O)NC3CC2(C)Oc2c(OCc4ccccc4)cccc23)c1 (stereo not drawn) [Compound A38, 3-(10-(benzyloxy)-2-methyl-4-oxo-5,6-dihydro-2H-2,6-methanobenzo[g][1,3,5]oxadiazocin-3(4H)-yl)-N-(ethyl)benzamide]

Continued, compound first:

SMILES	pIC50 (GLUT1)	pIC50 (GLUT3)	pIC50 (GLUT4)
Cc1ccc(CCNC(=O)c2cccc(N3C(=O)NC4CC3(C)Oc3c(OCC5CC5)cccc34)c2)cc1 (stereo not drawn) [Compound A08, 3-(10-(Cyclopropylmethoxy)-2-methyl-4-oxo-5,6-dihydro-2H-2,6-methanobenzo[g][1,3,5]oxadiazocin-3(4H)-yl)-N-(4-methylphenethyl)benzamide]	≥ 6.52	6.00 to 6.52	5.40 to 6.00
Cc1ccc(CCNC(=O)c2cccc(N3C(=O)NC4CC3(C)Oc3c(OCc5cncnc5)cccc34)c2)cc1 (stereo not drawn) [Compound A13, 3-(2-Methyl-4-oxo-10-(pyrimidin-5-ylmethoxy)-5,6-dihydro-2H-2,6-methanobenzo[g][1,3,5]oxadiazocin-3(4H)-yl)-N-(4-methylphenethyl)benzamide]	6.00 to 6.52	6.00 to 6.52	< 4.60
CC12CC(NC(=O)N1c1cccc(C(=O)N3CCc4ccccc43)c1)c1cccc(OCc3ccccc3)c1O2 (stereo not drawn) [Compound A19, 10-(benzyloxy)-3-(3-(indoline-1-carbonyl)phenyl)-2-methyl-5,6-dihydro-2H-2,6-methanobenzo[g][1,3,5]oxadiazocin-4(3H)-one]	4.60 to 5.00	5.40 to 6.00	< 4.60
Cc1ccc(CCNC(=O)c2cccc(N3C(=O)NC4CC3(C)Oc3c(OCc5cccnc5N)cccc34)c2)cc1 (stereo not drawn) [Compound A12, 3-(10-((2-Aminopyridin-3-yl)methoxy)-2-methyl-4-oxo-5,6-dihydro-2H-2,6-methanobenzo[g][1,3,5]oxadiazocin-3(4H)-yl)-N-(4-methylphenethyl)benzamide]	5.40 to 6.00	5.40 to 6.00	< 4.60
Cc1ccc(CCNC(=O)c2cccc(N3C(=O)NC4CC3(C)Oc3c(OCc5cncc(C)c5)cccc34)c2)cc1 (stereo not drawn) [Compound A14, 3-(2-Methyl-10-((5-methylpyridin-3-yl)methoxy)-4-oxo-5,6-dihydro-2H-2,6-methanobenzo[g][1,3,5]oxadiazocin-3(4H)-yl)-N-(4-methylphenethyl)benzamide]	≥ 6.52	≥ 6.52	5.40 to 6.00
Cc1ccc(CCOC(=O)c2cccc(N3C(=O)NC4CC3(C)Oc3c(OCc5ccccc5)cccc34)c2)cc1 (stereo not drawn) [Compound A22, 4-methylphenethyl 3-(10-(benzyloxy)-2-methyl-4-oxo-5,6-dihydro-2H-2,6-methanobenzo[g][1,3,5]oxadiazocin-3(4H)-yl)benzoate]	5.00 to 5.40	5.40 to 6.00	< 4.60
Cc1ccc(CCNC(=O)c2cccc(N3C(=O)NC4CC3(C)Oc3c(OCc5ccncc5)cccc34)c2)cc1 (stereo not drawn) [Compound A09, 3-(2-Methyl-4-oxo-10-(pyridin-4-ylmethoxy)-5,6-dihydro-2H-2,6-methanobenzo[g][1,3,5]oxadiazocin-3(4H)-yl)-N-(4-methylphenethyl)benzamide]	≥ 6.52	6.00 to 6.52	5.00 to 5.40
